In patent publication US6420430B1, “Use of inhibitors of the sodium-hydrogen exchanger for preparing a medicament for preventing age-related disorders, and for prolonging life” (Aventis Pharma Deutschland GmbH, priority 1998, dated 2002):
“Also recorded” adds a separate entry of the source.

Key:
WKY rats [1] = experiment: Histomorphological examination of organs (heart, kidneys, skeletal muscles, eyes, liver); format: in vivo, rat; details: for age-related histomorphological organ changes (connective tissue in heart muscle, muscular dystrophy, tubulointerstitial kidney damage, retina atrophy): life-long treatment, WKY rats
Excerpt: The effect of a life-long treatment of young normotensive Wistar-Kyoto rats (WKY rats) with the sodium-hydrogen exchanger (“NHE”) inhibitor cariporide was investigated. In addition to the primary end point, the lifespan, surrogate parameters were studied and measured, for example the hypertrophy of the left ventricle of the heart, heart function, metabolism and endothelial function. In addition, organs, such as heart, kidneys, skeletal muscles and eyes, were examined histomorphologically. In accordance with the method described by Langendorff, the hearts were perfused with an oxygen-saturated (95% O2, […]), non-circulating Krebs-Henseleit solution of the following composition (mmol/l): NaCl, 118; KCl, 4.7; CaCl2, 2.5; MgSO4, 1.6; NaHCO3, 24.9; KH2PO4, 1.2; glucose, 5.5; Na-pyruvate, 2.0, using a perfusion pressure of 60 mm Hg. The pressure in the left ventricle and the pulse frequency of the heart were measured using a balloon catheter. The coronary blood flow was determined using an electromagnetic flow gage. After a washing phase of 5 minutes, 1 ml of the coronary effluent was taken off for measuring the lactate concentrations and the lactate dehydrogenase and creatine kinase activities. The weights of the entire heart and the weights of the left and the right ventricle were then determined. The left ventricle was fixed in 10% strength neutral buffered formalin solution and embedded in paraffin for light-microscopic examination.

[2] = test system: isolated thoracic aorta of WKY rats; experiment: Vessel function on isolated rings of the thoracic aorta: endothelium-dependent relaxation by acetylcholine after KCl precontraction; format: in vivo, rat; details: KCl-precontracted aorta rings, 30-month-old rats
Procedure: The interim analysis was carried out after 80% of the placebo-treated animals had died; this was the case after 30 months. 10 animals of each group were selected at random and anesthetized (hexobarbital, 80 mg·kg^−1, i.p.). Blood samples were then taken, and the thoracic aortae and the hearts were prepared and biochemically and/or functionally examined (Linz et al., 1997). The aorta was introduced into Tyrode's solution and freed from the surrounding fatty tissue. Segments of 2 mm were then sliced into rings, and these rings were introduced in a temperature-controlled (37° C.) organ bath (10 ml) with Tyrode's solution (composition in mol/l: NaCl 136.9; NaHCO3 11.9; KCl 2.7; CaCl2 0.5; MgCl2 2.0; NaHPO4 0.4; glucose 5.5; pH=7.4), and 95% O2/5% CO2 was bubbled through the solution. Each ring was mounted vertically between two fine steel clamps. The upper clamp was connected to a force sensor. The force signal was recorded using a computer-assisted biosignal analyzer. The aorta rings were suspended using a passive tension of 4.9 mN. After an adaptation period of one hour, the rings were contracted using potassium chloride (20 mmol/l). After a plateau had been reached, increasing concentrations of acetylcholine of 10^−8, 10^−7, 10^−6 and 10^−5 mol/l were added to the bath, triggering an endothelium dependent relaxation.

[3] = test system: isolated heart of WKY rats; experiment: Function and metabolism of the isolated heart (Langendorff) after 30 months of treatment; format: in vivo, rat; details: n = 10 per group
Procedure: (§1) The interim analysis was carried out after 80% of the placebo-treated animals had died; this was the case after 30 months. 10 animals of each group were selected at random and anesthetized (hexobarbital, 80 mg·kg^−1, i.p.). Blood samples were then taken, and the thoracic aortae and the hearts were prepared and biochemically and/or functionally examined (Linz et al., 1997). In accordance with the method described by Langendorff, the hearts were perfused with an oxygen-saturated (95% O2, […]), non-circulating Krebs-Henseleit solution of the following composition (mmol/l): NaCl, 118; KCl, 4.7; CaCl2, 2.5; MgSO4, 1.6; NaHCO3, 24.9; KH2PO4, 1.2; glucose, 5.5; Na-pyruvate, 2.0, using a perfusion pressure of 60 mm Hg. The pressure in the left ventricle and the pulse frequency of the heart were measured using a balloon catheter. The coronary blood flow was determined using an electromagnetic flow gage. After a washing phase of 5 minutes, 1 ml of the coronary effluent was taken off for measuring the lactate concentrations and the lactate dehydrogenase and creatine kinase activities. The weights of the entire heart and the weights of the left and the right ventricle were then determined. The left ventricle was fixed in 10% strength neutral buffered formalin solution and embedded in paraffin for light-microscopic examination.

WKY rats [4] = experiment: Interim analysis after 30 months: organ weights (heart, ventricles, kidneys, spleen); format: in vivo, rat
Procedure: as §1

[5] = test system: normotensive Wistar-Kyoto rats (WKY rats); experiment: Life-long treatment of normotensive WKY rats with cariporide via the feed: lifespan, cumulative survival rate, onset of age-related cancer; format: in vivo, rat
Excerpt: The effect of a life-long treatment of young normotensive Wistar-Kyoto rats (WKY rats) with the sodium-hydrogen exchanger (“NHE”) inhibitor cariporide was investigated. In addition to the primary end point, the lifespan, surrogate parameters were studied and measured, for example the hypertrophy of the left ventricle of the heart, heart function, metabolism and endothelial function. In addition, organs, such as heart, kidneys, skeletal muscles and eyes, were examined histomorphologically.
Ninety one-month-old WKY rats were randomized into two groups of placebo-treated (n=45) and cariporide-treated (n=45) rats. Cariporide was administered via the feed (active compound content 0.3%).
Male WKY rats were purchased from Møllegrad Denmark. The animals (3 per cage) were kept under standardized conditions with respect to temperature, atmospheric humidity and light. The rats had free access to a standard diet (Altromin® maintenance diet 1320, sodium content 0.2%) and received drinking water ad libitum. All experiments were carried out in accordance with the German Law on the Protection of Animals.
Ninety one-month-old animals were randomized into two groups of in each case 45 animals. After randomization, placebo and cariporide were administered to the rats via the drinking water and the feed, respectively, a proportion of 0.3% of the feed ensuring complete blockage of the NHE for 24 hours.
At intervals of 3 months, the body weight was determined and the blood pressure was measured using the tail plethysmography method. Events of death were registered after they had occurred.
All data are stated as mean±standard deviations. The survival data were analyzed in accordance with Kaplan-Meier, followed by a Mantel-Cox log-rank test. Furthermore, variance analysis (ANOVA) followed by a Student-Newman-Keuls test were employed. Null hypotheses were rejected at p<0.05.

hypertensive rats = hypertensive rats only; Circulation 1997; 96: 3164-3172; cited from earlier work

Compound: CC(C)c1ccc(C(=O)N=C(N)N)cc1S(C)(=O)=O.CS(=O)(=O)O [Cariporide, cariporide]
- histomorphology of the livers (WKY rats [1]; compared with control animals): unchanged
- age-related histomorphological organ changes (connective tissue in heart muscle, muscular dystrophy, tubulointerstitial kidney damage, retina atrophy) (WKY rats [1]): drastically reduced
- age-related histomorphological organ changes (connective tissue in heart muscle, muscular dystrophy, tubulointerstitial kidney damage, retina atrophy) (WKY rats [1]; listed as cariporide): reduced drastically or prevented completely
- Vessel function on the aorta (relaxation in %) ([2]; ACh 10^−5 mol/l): 95 ± 10%
- Vessel function on the aorta (relaxation in %) ([2]; ACh 10^−6 mol/l): 85 ± 8 %
- Vessel function on the aorta (relaxation in %) ([2]; ACh 10^−7 mol/l): 50 ± 6 %
- Vessel function on the aorta (relaxation in %) ([2]; ACh 10^−8 mol/l): 5 ± 2%
- CF (coronary flow) [3]: 34.6 ± 0.7 mL/min/g
- CK (creatine kinase in the coronary effluent) [3]: 0.20 ± 0.02 mU/min/g heart wwt
- HR [3]: 182 ± 7 beats/min
- LDH (lactate dehydrogenase in the coronary effluent) [3]: 0.42 ± 0.02 mU/min/g heart wwt
- LVP (pressure in the left ventricle) [3]: 111.5 ± 3.9 mm Hg
- Lactate in the coronary effluent [3]: 2.5 ± 0.13 μmol/min/g heart wwt
- dP/dtmax (constriction rate of the left ventricle) [3]: 4432 ± 121 mm Hg/s
- Heart weight, Heart (total) (WKY rats [4]; n = 10/group): 235 ± 10 mg/100 g of body weight
- Heart weight, Left ventricle (WKY rats [4]; n = 10/group): 193 ± 8 mg/100 g of body weight
- Heart weight, Right ventricle (WKY rats [4]; n = 10/group): 36 ± 2 mg/100 g of body weight
- age-related hypertrophy of the heart (WKY rats [4]; versus placebo-treated animals): prevented
- Survival rate in percent ([5]; 19 months): 100%
- Survival rate in percent ([5]; 20 months): 100%
- Survival rate in percent ([5]; 21 months): 100%
- Survival rate in percent ([5]; 22 months): 100%
- Survival rate in percent ([5]; 23 months): 97%
- Survival rate in percent ([5]; 24 months): 97%
- Survival rate in percent ([5]; 25 months): 97%
- Survival rate in percent ([5]; 26 months): 97%
- Survival rate in percent ([5]; 27 months): 97%
- Survival rate in percent ([5]; 28 months): 97%
- Survival rate in percent ([5]; 29 months): 92%
- Survival rate in percent ([5]; 30 months): 89%
- Survival rate in percent ([5]; 31 months): 80%
- Survival rate in percent ([5]; 32 months): 75%
- Survival rate in percent ([5]; 33 months): 67%
- Survival rate in percent ([5]; 34 months): 59%
- Survival rate in percent ([5]; 35 months): 49%
- Survival rate in percent ([5]; 36 months): 38%
- Survival rate in percent ([5]; 37 months): 28%
- Survival rate in percent ([5]; 38 months): 17%
- Survival rate in percent ([5]; 39 months): 10%
- maximum lifespan ([5]; life-long treatment, 0.3% in feed, WKY rats, placebo 30 months): 39 months
- onset of age-related cancer ([5]; life-long treatment, WKY rats, listed as cariporide): delayed onset; also recorded: delayed significantly
- life extension ([5]; maximum lifespan versus placebo): 30%

Compound: CCOC(=O)[C@H](CCc1ccccc1)N[C@@H](C)C(=O)N1[C@H](C(=O)O)C[C@@H]2CCC[C@@H]21 [ramipril]
- effect on lifespan (hypertensive rats): life-prolonging effect
